Molecular target: solubilized Aβ40 (Homo sapiens, UniProt P05067)
Experiment: MS (mass spectrometry) binding assay for Aβ40
Procedure: The test compounds were synthesized and screened by mass spectrometry (“MS”) assays. The MS assay gives data on the ability of compounds to bind to proteins, in this example, to β-amyloid.
In the MS assay for Aβ40, the sample was prepared as an aqueous solution (adding 20% ethanol if necessary to solubilize in water), 200 μM of a test compound and 20 μM of solubilized Aβ40, or 400 μM of a test compound and 40 μM of solubilized Aβ40. The pH value of the sample was adjusted to 7.4 (±0.2) by addition of 0.1% aqueous sodium hydroxide. The solution was then analyzed by electrospray ionization mass spectrometry using a Waters ZQ 4000 mass spectrometer. The sample was introduced by direct infusion at a flow-rate of 25 μL/min within 2 hr. after sample preparation. The source temperature was kept at 70° C. and the cone voltage was 20 V for all the analysis. Data were processed using Masslynx 3.5 software. The MS assay gives data on the ability of compounds to bind to soluble Aβ.

Sequence of solubilized Aβ40 (P05067 672-711 limits assumed): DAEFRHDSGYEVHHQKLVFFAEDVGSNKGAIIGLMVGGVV

`O=S(=O)(O)CCCNCC(F)(F)F` [3-[(2,2,2-trifluoroethyl)amino]-1-propanesulfonic acid] was tested, and the “binding to soluble Aβ40” value (200 μM of test compound) was 20-44% and the “binding to soluble Aβ40” value (400 μM of test compound) was 45-59%.
